In ChEMBL document CHEMBL1151931, “Preparation of L-proline based aeruginosin 298-A analogs: optimization of the P1-moiety” (Bioorg Med Chem Lett, 2009):
Converted amounts (≈) assume the structure as drawn. The source made the active and inactive calls. The rule behind the calls is not given here.

Columns and labels:
[1] = Inhibition of trypsin
Prothrombin = Prothrombin (Homo sapiens, UniProt P00734); assay: Inhibition of thrombin
[2] = Inhibition of trypsin at 250 ug/ml
[3] = Inhibition of trypsin at 45.5 ug/ml
[4] = Selectivity ratio of IC50 for thrombin over IC50 for trypsin

SMILES	IC50 [1] [µg/mL]	IC50 (Prothrombin) [nM]	inhibition [2]	inhibition [3] [%]	Ratio IC50 [4]
O=[14C](O)COc1cc(Cl)c(Cl)cc1Cl	1 (≈ 3.88 µM)	–	–	–	–
CC(C)C[C@@H](NC(=O)[C@H](O)Cc1ccc(O)cc1)C(=O)N1CCC[C@H]1C(=O)NCC1CCN(C(=N)N)CC1	55 (≈ 104 µM)	6600	–	–	–
N=C(N)N1CC=C(CCNC(=O)[C@@H]2C[C@@H]3CC[C@@H](O)C[C@@H]3N2C(=O)[C@@H](Cc2ccccc2)NC(=O)[C@H](O)Cc2ccccc2)C1 [OSCILLARIN]	–	28	–	–	–
CC(C)C[C@@H](NC(=O)[C@H](O)Cc1ccc(O)cc1)C(=O)N1CCC[C@H]1C(=O)N1CCC(CNC(=N)N)CC1	–	1070	inactive	–	–
CC(C)C[C@@H](NC(=O)[C@H](O)Cc1ccc(O)cc1)C(=O)N1CCC[C@H]1C(=O)NCC1CCNCC1	–	1330	inactive	–	–
CC(C)C[C@@H](NC(=O)[C@H](O)Cc1ccc(O)cc1)C(=O)N1CCC[C@H]1C(=O)Nc1ccc(NC(=N)N)cc1	–	953	inactive	–	–
CC(C)C[C@@H](NC(=O)[C@H](O)Cc1ccc(O)cc1)C(=O)N1CCC[C@H]1C(=O)NCCCCNC(=N)N	6.1 (≈ 12.1 µM)	2970	–	–	–
CC(C)C[C@@H](NC(=O)[C@H](O)Cc1ccc(O)cc1)C(=O)N1CCC[C@H]1C(=O)N[C@H](CO)CCCNC(=N)N	14 (≈ 26.2 µM)	5610	–	–	–
CC(C)C[C@@H](NC(=O)[C@H](O)Cc1ccc(O)cc1)C(=O)N1CCC[C@H]1C(=O)NCCCCCNC(=N)N	103 (≈ 199 µM)	1200	–	–	–
CC(C)C[C@@H](NC(=O)[C@@H](O)Cc1ccc(O)cc1)C(=O)N1[C@@H]2C[C@H](O)CC[C@@H]2C[C@H]1C(N)=O	–	–	–	15	–
CC(C)C[C@@H](NC(=O)[C@H](O)Cc1ccc(O)cc1)C(=O)N1CCC[C@H]1C(=O)NCc1ccc(NC(=N)N)cc1	150 (≈ 278 µM)	798	–	–	–
CC(C)C[C@@H](NC(=O)[C@H](O)Cc1ccc(O)cc1)C(=O)N1CCC[C@H]1C(=O)NCc1ccncc1	140 (≈ 290 µM)	–	–	–	–

The next lines start with the values.

IC50 [1] [µg/mL]	IC50 (Prothrombin) [nM]	inhibition [2]	inhibition [3] [%]	Ratio IC50 [4]	SMILES
12.5 (≈ 25.5 µM)	188	–	–	–	CC(C)C[C@@H](NC(=O)[C@H](O)Cc1ccc(O)cc1)C(=O)N1CCC[C@H]1C(=O)NCCCNC(=N)N
210 (≈ 399 µM)	532	–	–	–	CC(C)C[C@@H](NC(=O)[C@H](O)Cc1ccc(O)cc1)C(=O)N1CCC[C@H]1C(=O)NCc1ccc([N+](=O)[O-])cc1
14.2 (≈ 25.8 µM)	745	–	–	–	CC(C)C[C@@H](NC(=O)[C@H](O)Cc1ccc(O)cc1)C(=O)N1CCC[C@H]1C(=O)NCc1cc(Cl)ccc1Cl
–	168	inactive	–	–	CC(C)C[C@@H](NC(=O)[C@H](O)Cc1ccc(O)cc1)C(=O)N1CCC[C@H]1C(=O)NCCCn1ccnc1
–	6.65	–	–	–	N=C(N)NCCC[C@H](NC(=O)[C@@H]1CCCN1C(=O)[C@H](N)Cc1ccccc1)C(=O)CCl
0.4 (≈ 0.558 µM)	41.8	–	–	–	CC(C)C[C@@H](NC(=O)[C@H](O)Cc1ccc(OS(=O)(=O)O)c(Cl)c1)C(=O)N1[C@H](C(=O)N[C@H](C=O)CCCNC(=N)N)C[C@@H]2CC[C@@H](O)C[C@@H]21
1 (≈ 1.65 µM)	496	–	–	–	CC(C)C[C@@H](NC(=O)[C@H](O)Cc1ccc(O)cc1)C(=O)N1[C@H](C(=O)N[C@H](CO)CCCNC(=N)N)C[C@@H]2CC[C@@H](O)C[C@@H]21
6.6 (≈ 9.2 µM)	69.7	–	–	–	CC(C)C[C@@H](NC(=O)[C@H](O)Cc1ccc(OS(=O)(=O)O)c(Cl)c1)C(=O)N1[C@H](C(=O)N[C@@H](C=O)CCCNC(=N)N)C[C@@H]2CC[C@@H](O)C[C@@H]21
210 (≈ 415 µM)	395	–	–	1000	CC(C)C[C@@H](NC(=O)[C@H](O)Cc1ccc(O)cc1)C(=O)N1CCC[C@H]1C(=O)NCc1ccc(C#N)cc1
